Experimental data: patent US12110287B2, “Heterocyclic derivatives as Nav1.7 and Nav1.8 blockers” (RaQualia Pharma Inc., priority 2018, dated 2024)

Tests used:
[1] = biological target: T1, Nav1.7 (Homo sapiens, UniProt Q15858); assay: EFS-FRET assay; format: cell-based; parameters: expressed in transfected cells; host or cells: CHO (Chinese hamster ovary) cells; details: CHO cells expressing human Nav1.7 channels, read-out: IC50 against Nav1.7
Procedure: This screen is used to determine the effects of compounds on human Nav1.7 channels, utilizing electrical field stimulation (EFS) system in 96-well plate format on FDSS (Hamamatsu Photonics) platform. The changes of membrane potential are monitored with FRET dye pair, DiSBAC2(3) and PTS18.
CHO (Chinese hamster ovary) cells expressing human Nav1.7 channels are grown in T225 flasks, in a 5% CO2 humidified incubator to about 80% confluence. Media composition consists of HAM/F12 with Glutamax I, 10% FCS, 100 units/mF penicillin and 100 microgram/mF hygromycin.
• Seed each cell lines (1×10^5 cells/well) into 96-well plates prior to experimentation. • Incubate at 37° C. in 5% CO2 for 24 hours. • Wash each well with assay buffer (140 mM NaCl, 4.5 mM KCl, 10 mM D-Glucose, 2 mM CaCl2, 1 mM MgCl2, 10 mM HEPES, pH 7.4 adjusted with NaOH) twice. • Add 1st loading solution containing 10 microM PTS18 and 0.06% Pluronic F-127 in assay buffer. • Incubate the plate at rt in dark for 1 hour. • Remove 1st loading solution and add 2nd loading solution containing 12.5 microM DiSBAC2(3), 1.25 mM Xylene Fast Yellow and 0.0075% Pluronic F-127 in assay buffer. • Place the plate under the dark at rt for 25 minutes. • Add compound solutions into the assay plate. • Set the assay plate in FDSS and place an EFS device on the plate. • Measure EFS-induced fluorescent response by FDSS.
The data are analyzed and reported as normalized ratios of intensities measured at […]. The process of calculating these ratios is performed as follows:
This analysis is performed using a computerized specific program designed for FDSS generated data. Fluorescence ratio values are plotted using XLfit to determine an IC50 value for each compound.

[2] = biological target: T1, Nav1.7; assay: Electrophysiology assay (whole cell patch clamp), affinity to inactivated state; format: cell-based; parameters: expressed in transfected cells; details: affinity to inactivated state (Kinact), read-out: activity (Ki) against Nav1.7
Procedure: Whole cell patch clamp recording is used to assess the efficacy or selectivity of Na (Sodium) channel blocker on human voltage gated sodium channels. Na channel expressing cells are dissociated by 0.05% Trypsin-EDTA or Accutase, and then seeded on cover glass for 2-24 hours.
Manual patch clamp recordings are conducted at rt using the voltage-clamp amplifier (Axon Instruments or HEKA electronik). Electrodes are pulled with P-97 electrode puller (Sutter Instrument). The electrode resistances are 1-3 MOhm when intercellular solution is filled. Currents are lowpass filtered between 2-5 kHz and digitally sampled at 10 kHz. […]
After whole-cell configuration is achieved, cell is monitored at least 10 minutes to allow cell dialysis with pipette solution. […]
Peak currents evoked by Test 1 and Test 2 pulses are sampled with Clampex (Axon Instruments) or Pulse+Pulse Fit (HEKA). Averaged peak currents under vehicle or test compounds are calculated from 3 data points at end of each condition.
Inhibitory effects (% inhibition) on peak currents at Test 1 or Test 2 pulse are plotted against test concentration and IC50 values at Test 1 (Closed IC50) or Test 2 (Inactivated IC50) are calculated with Hill equation, respectively. […]
After whole-cell configuration is achieved, the cell is monitored at least 10-15 minutes to allow cell dialysis with pipette solution. […]

T1 sequence (Q15858 whole entry): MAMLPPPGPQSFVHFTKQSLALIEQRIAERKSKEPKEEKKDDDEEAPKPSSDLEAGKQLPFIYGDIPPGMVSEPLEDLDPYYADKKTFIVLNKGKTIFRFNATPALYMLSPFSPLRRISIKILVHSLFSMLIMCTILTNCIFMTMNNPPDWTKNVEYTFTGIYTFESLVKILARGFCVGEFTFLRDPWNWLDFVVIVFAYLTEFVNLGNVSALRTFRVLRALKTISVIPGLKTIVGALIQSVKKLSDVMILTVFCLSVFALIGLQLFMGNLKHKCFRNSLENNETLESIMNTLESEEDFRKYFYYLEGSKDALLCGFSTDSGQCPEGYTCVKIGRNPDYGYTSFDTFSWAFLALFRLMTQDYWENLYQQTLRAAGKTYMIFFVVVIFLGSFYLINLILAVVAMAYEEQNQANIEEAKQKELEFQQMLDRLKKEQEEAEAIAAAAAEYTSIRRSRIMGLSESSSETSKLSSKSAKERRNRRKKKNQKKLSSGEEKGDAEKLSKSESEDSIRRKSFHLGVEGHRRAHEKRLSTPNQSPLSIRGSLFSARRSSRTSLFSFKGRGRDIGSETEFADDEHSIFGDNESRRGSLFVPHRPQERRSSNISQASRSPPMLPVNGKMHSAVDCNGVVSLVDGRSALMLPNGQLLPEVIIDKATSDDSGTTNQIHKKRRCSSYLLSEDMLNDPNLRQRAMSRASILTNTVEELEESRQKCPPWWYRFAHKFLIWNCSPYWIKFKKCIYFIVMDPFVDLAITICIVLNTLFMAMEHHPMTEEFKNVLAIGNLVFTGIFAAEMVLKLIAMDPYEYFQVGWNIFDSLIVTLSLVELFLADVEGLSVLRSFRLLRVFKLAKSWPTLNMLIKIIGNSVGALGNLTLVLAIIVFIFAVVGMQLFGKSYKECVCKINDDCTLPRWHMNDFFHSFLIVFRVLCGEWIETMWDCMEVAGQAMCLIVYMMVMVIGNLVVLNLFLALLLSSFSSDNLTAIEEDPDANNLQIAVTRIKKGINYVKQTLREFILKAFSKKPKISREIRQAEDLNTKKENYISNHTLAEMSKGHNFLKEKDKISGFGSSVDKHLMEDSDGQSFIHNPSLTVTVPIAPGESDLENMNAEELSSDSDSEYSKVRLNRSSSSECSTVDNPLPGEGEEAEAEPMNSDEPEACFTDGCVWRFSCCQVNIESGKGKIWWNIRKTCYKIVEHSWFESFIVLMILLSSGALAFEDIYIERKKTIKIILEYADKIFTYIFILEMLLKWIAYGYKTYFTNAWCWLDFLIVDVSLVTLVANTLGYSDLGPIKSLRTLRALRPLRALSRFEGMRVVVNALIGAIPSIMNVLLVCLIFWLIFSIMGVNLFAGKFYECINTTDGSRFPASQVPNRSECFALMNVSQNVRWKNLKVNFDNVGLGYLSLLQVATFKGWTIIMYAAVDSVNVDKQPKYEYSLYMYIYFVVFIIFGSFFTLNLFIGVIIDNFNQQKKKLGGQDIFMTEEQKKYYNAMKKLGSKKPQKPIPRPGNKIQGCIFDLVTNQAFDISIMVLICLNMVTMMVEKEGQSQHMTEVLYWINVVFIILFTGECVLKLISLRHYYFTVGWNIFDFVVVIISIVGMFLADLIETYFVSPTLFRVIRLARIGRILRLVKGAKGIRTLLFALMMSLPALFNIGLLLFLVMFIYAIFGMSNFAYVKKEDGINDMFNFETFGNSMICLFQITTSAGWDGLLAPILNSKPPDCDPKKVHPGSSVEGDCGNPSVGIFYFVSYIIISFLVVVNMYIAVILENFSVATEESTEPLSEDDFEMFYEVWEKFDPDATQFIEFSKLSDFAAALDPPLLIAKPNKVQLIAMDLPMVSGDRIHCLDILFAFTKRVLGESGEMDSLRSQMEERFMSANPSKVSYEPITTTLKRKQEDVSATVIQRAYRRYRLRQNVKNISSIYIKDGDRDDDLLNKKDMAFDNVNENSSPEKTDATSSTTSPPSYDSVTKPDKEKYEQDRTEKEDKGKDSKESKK

IC50 [1]: < 500 nM
Ki [2]: < 200 nM
Compound: O=C(N[C@@H]1CCCN(c2ncc(C(F)(F)F)cc2Cl)C1)c1ccnc(NC(=O)C2CC2)c1 [Example 7]
